Source: US20200054633A1 (priority 2017, published 2020)

Tests used:
[1] = Clinical study: study drug discontinuation and reasons; assay type: in vivo, human
From the text: Given the sizable difference between the FAS and the Safety Set, summary tables are provided for both analysis sets. Table 4 and Table 5 present a summary of subjects who completed or discontinued study drug and/or the study for the FAS and the Safety Set, respectively.

[2] = Clinical study: treatment-emergent laboratory toxicities, ECG, vital signs; assay type: in vivo, human; conditions: for Worst treatment-emergent toxicity: Glucose hyperglycemia Grade 3 / Worst treatment-emergent toxicity: ALT increase by factor Grade 3 / Worst treatment-emergent toxicity: ALT increase by factor Grade 4 / Worst treatment-emergent toxicity: AST increase by factor Grade 4 / Worst treatment-emergent toxicity: CPK Grade 3 / Worst treatment-emergent toxicity: CPK Grade 4 / Worst treatment-emergent toxicity: Cholesterol Grade 3 / Worst treatment-emergent toxicity: Hemoglobin - change from baseline Grade 3 / Worst treatment-emergent toxicity: Hyperkalemia Grade 3 / Worst treatment-emergent toxicity: Hyperkalemia Grade 4 / Worst treatment-emergent toxicity: Hypernatremia Grade 3 / Worst treatment-emergent toxicity: Hypernatremia Grade 4 / Worst treatment-emergent toxicity: Hypocalcemia Grade 4 / Worst treatment-emergent toxicity: Hypoglycemia Grade 3 / Worst treatment-emergent toxicity: Hypokalemia Grade 3 / Worst treatment-emergent toxicity: Hypokalemia Grade 4 / Worst treatment-emergent toxicity: Hypomagnesemia Grade 3 / Worst treatment-emergent toxicity: Hyponatremia Grade 3 / Worst treatment-emergent toxicity: Hypophosphatemia Grade 3 / Worst treatment-emergent toxicity: Neutrophils decrease Grade 3 / Worst treatment-emergent toxicity: Neutrophils decrease Grade 4 / Worst treatment-emergent toxicity: Urine RBC increased Grade 3 / Worst treatment-emergent toxicity: Urine WBC increased Grade 3 / Worst treatment-emergent toxicity: Urine glucose increased Grade 3 / Worst treatment-emergent toxicity: Urine protein increased Grade 3: OST placebo; for Worst treatment-emergent toxicity: ALT increase by factor Grade 3 / Worst treatment-emergent toxicity: ALT increase by factor Grade 4 / Worst treatment-emergent toxicity: AST increase by factor Grade 4 / Worst treatment-emergent toxicity: CPK Grade 3 / Worst treatment-emergent toxicity: CPK Grade 4 / Worst treatment-emergent toxicity: Cholesterol Grade 3 / Worst treatment-emergent toxicity: Hemoglobin - change from baseline Grade 3 / Worst treatment-emergent toxicity: Hyperkalemia Grade 3 / Worst treatment-emergent toxicity: Hyperkalemia Grade 4 / Worst treatment-emergent toxicity: Hypernatremia Grade 3 / Worst treatment-emergent toxicity: Hypernatremia Grade 4 / Worst treatment-emergent toxicity: Hypocalcemia Grade 4 / Worst treatment-emergent toxicity: Hypoglycemia Grade 3 / Worst treatment-emergent toxicity: Hypokalemia Grade 3 / Worst treatment-emergent toxicity: Hypokalemia Grade 4 / Worst treatment-emergent toxicity: Hypomagnesemia Grade 3 / Worst treatment-emergent toxicity: Hyponatremia Grade 3 / Worst treatment-emergent toxicity: Hypophosphatemia Grade 3 / Worst treatment-emergent toxicity: Neutrophils decrease Grade 3 / Worst treatment-emergent toxicity: Neutrophils decrease Grade 4 / Worst treatment-emergent toxicity: Urine RBC increased Grade 3 / Worst treatment-emergent toxicity: Urine WBC increased Grade 3 / Worst treatment-emergent toxicity: Urine glucose increased Grade 3 / Worst treatment-emergent toxicity: Urine protein increased Grade 3: Safety Set 74
[3] = Cmpd (1) 300 mg + OST placebo, Full Analysis Set
[4] = Cmpd (1) 300 mg + OST placebo, Safety Set
[5] = Cmpd (1) 600 mg + OST placebo, Full Analysis Set
[6] = Cmpd (1) 600 mg + OST placebo, Safety Set

For `O=C(O)[C@H]1C2CCC(CC2)[C@@H]1Nc1nc(-c2c[nH]c3ncc(F)cc23)ncc1F` [Compound (1), Pimodivir], the “Drug termination: Discontinued” value [1, 3] was 20.7%, the “Drug termination: Discontinued, Adverse event” value [1, 3] was “(10.3%)” and the “Drug termination: Discontinued” value ([1]; Cmpd (1) 300 mg + OST placebo, Full Analysis Set, listed as Cmpd (1)) was “(20.7%)”. The “Drug termination: Discontinued” value [1, 4] was 14 (18.9%), the “Drug termination: Discontinued, Adverse event” value [1, 4] was 7 (9.5%) and the “Drug termination: Discontinued” value [1, 5] was 14.0%. The “Drug termination: Discontinued, Adverse event” value [1, 5] was “(5.3%)”, the “Drug termination: Discontinued” value ([1]; Cmpd (1) 600 mg + OST placebo, Full Analysis Set, listed as Cmpd (1)) was “(14.0%)” and the “Drug termination: Discontinued” value [1, 6] was 12 (16.2%). For the same molecule, the “Drug termination: Discontinued, Adverse event” value [1, 6] was 3 (4.1%), the “Worst treatment-emergent toxicity: Glucose hyperglycemia Grade 3” value ([2]; 300 mg, N 73) was 1 (1.4%) and the “Worst treatment-emergent toxicity: ALT increase by factor Grade 3” value ([2]; 300 mg) was 0. For the same molecule, the “Worst treatment-emergent toxicity: ALT increase by factor Grade 4” value ([2]; 300 mg) was 0, the “Worst treatment-emergent toxicity: AST increase by factor Grade 4” value ([2]; 300 mg) was 0 and the “Worst treatment-emergent toxicity: CPK Grade 3” value ([2]; 300 mg) was 1 (1.4%). The “Worst treatment-emergent toxicity: CPK Grade 4” value ([2]; 300 mg) was 0, the “Worst treatment-emergent toxicity: Cholesterol Grade 3” value ([2]; 300 mg) was 0 and the “Worst treatment-emergent toxicity: Hemoglobin - change from baseline Grade 3” value ([2]; 300 mg) was 5 (7.1%). The “Worst treatment-emergent toxicity: Hyperkalemia Grade 3” value ([2]; 300 mg) was 1 (1.4%), the “Worst treatment-emergent toxicity: Hyperkalemia Grade 4” value ([2]; 300 mg) was 0 and the “Worst treatment-emergent toxicity: Hypernatremia Grade 3” value ([2]; 300 mg) was 0. The “Worst treatment-emergent toxicity: Hypernatremia Grade 4” value ([2]; 300 mg) was 0, the “Worst treatment-emergent toxicity: Hypocalcemia Grade 4” value ([2]; 300 mg) was 1 (1.4%) and the “Worst treatment-emergent toxicity: Hypoglycemia Grade 3” value ([2]; 300 mg) was 0. For the same molecule, the “Worst treatment-emergent toxicity: Hypokalemia Grade 3” value ([2]; 300 mg) was 0, the “Worst treatment-emergent toxicity: Hypokalemia Grade 4” value ([2]; 300 mg) was 0 and the “Worst treatment-emergent toxicity: Hypomagnesemia Grade 3” value ([2]; 300 mg) was 1 (1.4%). The “Worst treatment-emergent toxicity: Hyponatremia Grade 3” value ([2]; 300 mg) was 0, the “Worst treatment-emergent toxicity: Hypophosphatemia Grade 3” value ([2]; 300 mg) was 2 (2.7%) and the “Worst treatment-emergent toxicity: Neutrophils decrease Grade 3” value ([2]; 300 mg) was 1 (1.4%). For the same molecule, the “Worst treatment-emergent toxicity: Neutrophils decrease Grade 4” value ([2]; 300 mg) was 0, the “Worst treatment-emergent toxicity: Urine RBC increased Grade 3” value ([2]; 300 mg) was 3 (9.4%) and the “Worst treatment-emergent toxicity: Urine WBC increased Grade 3” value ([2]; 300 mg) was 0. The “Worst treatment-emergent toxicity: Urine glucose increased Grade 3” value ([2]; 300 mg) was 1 (1.4%), the “Worst treatment-emergent toxicity: Urine protein increased Grade 3” value ([2]; 300 mg) was 0 and the “Worst treatment-emergent toxicity: Glucose hyperglycemia Grade 3” value ([2]; 600 mg, N 70) was 0. The “Worst treatment-emergent toxicity: ALT increase by factor Grade 3” value ([2]; 600 mg) was 1, the “Worst treatment-emergent toxicity: ALT increase by factor Grade 4” value ([2]; 600 mg) was 1 and the “Worst treatment-emergent toxicity: AST increase by factor Grade 4” value ([2]; 600 mg) was 1. For the same molecule, the “Worst treatment-emergent toxicity: CPK Grade 3” value ([2]; 600 mg) was 2, the “Worst treatment-emergent toxicity: CPK Grade 4” value ([2]; 600 mg) was 1 and the “Worst treatment-emergent toxicity: Cholesterol Grade 3” value ([2]; 600 mg) was 4. The “Worst treatment-emergent toxicity: Hemoglobin - change from baseline Grade 3” value ([2]; 600 mg) was 3, the “Worst treatment-emergent toxicity: Hyperkalemia Grade 3” value ([2]; 600 mg) was 1 and the “Worst treatment-emergent toxicity: Hyperkalemia Grade 4” value ([2]; 600 mg) was 2. The “Worst treatment-emergent toxicity: Hypernatremia Grade 3” value ([2]; 600 mg) was 0, the “Worst treatment-emergent toxicity: Hypernatremia Grade 4” value ([2]; 600 mg) was 0 and the “Worst treatment-emergent toxicity: Hypocalcemia Grade 4” value ([2]; 600 mg) was 0. For the same molecule, the “Worst treatment-emergent toxicity: Hypoglycemia Grade 3” value ([2]; 600 mg) was 2, the “Worst treatment-emergent toxicity: Hypokalemia Grade 3” value ([2]; 600 mg) was 1 and the “Worst treatment-emergent toxicity: Hypokalemia Grade 4” value ([2]; 600 mg) was 1. For the same molecule, the “Worst treatment-emergent toxicity: Hypomagnesemia Grade 3” value ([2]; 600 mg) was 0, the “Worst treatment-emergent toxicity: Hyponatremia Grade 3” value ([2]; 600 mg) was 0 and the “Worst treatment-emergent toxicity: Hypophosphatemia Grade 3” value ([2]; 600 mg) was 0. The “Worst treatment-emergent toxicity: Neutrophils decrease Grade 3” value ([2]; 600 mg) was 4, the “Worst treatment-emergent toxicity: Neutrophils decrease Grade 4” value ([2]; 600 mg) was 0 and the “Worst treatment-emergent toxicity: Urine RBC increased Grade 3” value ([2]; 600 mg) was 5. For the same molecule, the “Worst treatment-emergent toxicity: Urine WBC increased Grade 3” value ([2]; 600 mg) was 2, the “Worst treatment-emergent toxicity: Urine glucose increased Grade 3” value ([2]; 600 mg) was 0 and the “Worst treatment-emergent toxicity: Urine protein increased Grade 3” value ([2]; 600 mg) was 2. The “laboratory values, electrocardiograms, and vital signs” value ([2]; clinical study) was “No safety concerns were noted”.
